In patent US12479830B2, “Homopiperazinyl and homopiperidinyl quinazolin-4(3H)-one derivatives having multimodal activity against pain” (ESTEVE PHARMACEUTICALS, S.A., priority 2019, dated 2025):

Columns and labels:
[1] = molecular target: Human α2δ-1 subunit of Cav2.2 calcium channel (Homo sapiens, UniProt P54289); assay: Human α2δ-1 subunit of Cav2.2 calcium channel assay ([3H]-gabapentin binding); conditions: binding to the α2δ-1 subunit of voltage-gated calcium channels, expressed as Ki class; + also covers inhibition between 1% and 50%
Sequence of Human α2δ-1 subunit of Cav2.2 calcium channel (P54289 25-1103): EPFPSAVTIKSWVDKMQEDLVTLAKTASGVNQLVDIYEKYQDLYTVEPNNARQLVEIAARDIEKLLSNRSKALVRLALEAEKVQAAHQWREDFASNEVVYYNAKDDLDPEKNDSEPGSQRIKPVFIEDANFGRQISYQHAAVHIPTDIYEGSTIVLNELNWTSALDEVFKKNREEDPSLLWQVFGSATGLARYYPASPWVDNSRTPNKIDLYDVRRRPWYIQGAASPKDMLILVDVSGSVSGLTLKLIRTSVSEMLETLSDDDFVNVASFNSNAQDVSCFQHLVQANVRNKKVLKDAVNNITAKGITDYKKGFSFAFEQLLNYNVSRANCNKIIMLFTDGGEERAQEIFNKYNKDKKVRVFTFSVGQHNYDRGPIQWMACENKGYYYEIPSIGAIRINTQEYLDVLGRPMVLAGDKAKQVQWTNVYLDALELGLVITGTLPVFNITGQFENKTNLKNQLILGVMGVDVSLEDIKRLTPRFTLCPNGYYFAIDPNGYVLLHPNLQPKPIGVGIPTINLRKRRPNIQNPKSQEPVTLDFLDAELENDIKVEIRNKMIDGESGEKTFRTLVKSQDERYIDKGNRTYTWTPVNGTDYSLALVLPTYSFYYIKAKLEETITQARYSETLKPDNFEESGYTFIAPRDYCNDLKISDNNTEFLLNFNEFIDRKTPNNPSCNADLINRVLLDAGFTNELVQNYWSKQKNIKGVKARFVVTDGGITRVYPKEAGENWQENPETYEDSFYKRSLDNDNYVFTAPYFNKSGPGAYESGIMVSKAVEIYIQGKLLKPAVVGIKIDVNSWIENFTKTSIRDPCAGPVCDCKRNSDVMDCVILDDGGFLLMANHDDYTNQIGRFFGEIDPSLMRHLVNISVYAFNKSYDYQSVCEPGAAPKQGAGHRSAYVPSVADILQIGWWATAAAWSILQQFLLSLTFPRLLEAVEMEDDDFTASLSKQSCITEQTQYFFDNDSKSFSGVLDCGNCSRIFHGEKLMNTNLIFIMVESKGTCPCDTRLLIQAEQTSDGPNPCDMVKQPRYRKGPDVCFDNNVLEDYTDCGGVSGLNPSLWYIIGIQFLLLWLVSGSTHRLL
How it was run: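 Human α2δ-1 enriched membranes (2.5 μg) incubated 60 min at 27° C. with 15 nM [3H]-gabapentin in 10 mM Hepes-KOH pH 7.4; non-specific binding with 10 μM pregabalin. Filtration binding; % inhibition at 1 or 10 μM, or Ki from five concentrations.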

Human σ1 receptor = molecular target: T1, Human σ1 receptor (Homo sapiens, UniProt Q99720); assay: Human σ1 receptor radioligand assay ([3H](+)-pentazocine binding); conditions: binding to the σ1 receptor, expressed as Ki class; + also covers inhibition between 1% and 50%
T1 construct: expressed in transfected cells; host or cells: HEK-293
T1 sequence (Q99720 whole entry): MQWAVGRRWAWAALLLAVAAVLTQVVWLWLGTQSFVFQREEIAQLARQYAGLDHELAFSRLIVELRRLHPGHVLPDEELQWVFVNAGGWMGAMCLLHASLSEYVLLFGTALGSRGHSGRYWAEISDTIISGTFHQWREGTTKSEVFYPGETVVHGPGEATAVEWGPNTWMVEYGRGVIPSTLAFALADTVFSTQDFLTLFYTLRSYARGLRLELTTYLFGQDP
How it was run: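 Membranes (7 μg) were incubated with 5 nM [3H](+)-pentazocine in 50 mM Tris-HCl pH 8 for 120 min at 37° C. Non-specific binding was defined with 10 μM haloperidol. Values are % inhibition at 1 or 10 μM or Ki from five concentrations, read by filtration and scintillation counting.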

Row | Ki [1] [nM] | Ki (Human σ1 receptor) [nM] | Structure (SMILES)
1 | < 500 | 500 to 1000 | CCC[C@H](c1nc2c(F)cc(Br)cc2c(=O)n1CC)N1CCCN(C)CC1 [Example 161, (R)-6-Bromo-3-ethyl-8-fluoro-2-(1-(4-methyl-1,4-diazepan-1-yl)butyl)quinazolin-4(3H)-one]
2 | > 5000 | 500 to 1000 | CCC[C@@H](c1nc2c(F)cc(Br)cc2c(=O)n1CC)N1CCCN(C)CC1 [Example 162, (S)-6-bromo-3-ethyl-8-fluoro-2-(1-(4-methyl-1,4-diazepan-1-yl)butyl)quinazolin-4(3H)-one]
3 | < 500 | > 1000 | CCCC(c1nc2ccncc2c(=O)n1CC)N1CCCN(C)CC1 (stereo not drawn) [Example 163, 3-Ethyl-2-(1-(4-methyl-1,4-diazepan-1-yl)butyl)pyrido[4,3-d]pyrimidin-4(3H)-one]
4 | < 500 | > 1000 | CCC[C@H](c1nc2ccncc2c(=O)n1CC)N1CCNC[C@H](C)C1 [Example 164, 3-ethyl-2-((R)-1-((S)-6-methyl-1,4-diazepan-1-yl)butyl)pyrido[4,3-d]pyrimidin-4(3H)-one]
5 | < 500 | > 1000 | CCC[C@H](c1nc2ccncc2c(=O)n1CC)N1CCNC[C@@H](C)C1 [Example 165, 3-ethyl-2-((R)-1-((R)-6-methyl-1,4-diazepan-1-yl)butyl)pyrido[4,3-d]pyrimidin-4(3H)-one]
6 | > 5000 | > 1000 | CCC[C@@H](c1nc2ccncc2c(=O)n1CC)N1CCNC[C@H](C)C1 [Example 166, 3-ethyl-2-((S)-1-((S)-6-methyl-1,4-diazepan-1-yl)butyl)pyrido[4,3-d]pyrimidin-4(3H)-one]
7 | 500 to 5000 | > 1000 | CCC[C@@H](c1nc2ccncc2c(=O)n1CC)N1CCNC[C@@H](C)C1 [Example 167, 3-ethyl-2-((S)-1-((R)-6-methyl-1,4-diazepan-1-yl)butyl)pyrido[4,3-d]pyrimidin-4(3H)-one]
8 | < 500 | > 1000 | CCC[C@H](c1nc2ccncc2c(=O)n1CC)N1CCN(C)C[C@@H](C)C1 [Example 168, 2-((R)-1-((R)-4,6-dimethyl-1,4-diazepan-1-yl)butyl)-3-ethylpyrido[4,3-d]pyrimidin-4(3H)-one]
9 | < 500 | > 1000 | CCC[C@H](c1nc2ccncc2c(=O)n1CC)N1CCN(C)C[C@H](C)C1 [Example 169, 2-((R)-1-((S)-4,6-dimethyl-1,4-diazepan-1-yl)butyl)-3-ethylpyrido[4,3-d]pyrimidin-4(3H)-one]
10 | 500 to 5000 | > 1000 | CCC[C@@H](c1nc2ccncc2c(=O)n1CC)N1CCN(C)C[C@H](C)C1 [Example 170, 2-((S)-1-((S)-4,6-dimethyl-1,4-diazepan-1-yl)butyl)-3-ethylpyrido[4,3-d]pyrimidin-4(3H)-one]
11 | > 5000 | > 1000 | CCC[C@@H](c1nc2ccncc2c(=O)n1CC)N1CCN(C)C[C@@H](C)C1 [Example 171, 2-((S)-1-((R)-4,6-dimethyl-1,4-diazepan-1-yl)butyl)-3-ethylpyrido[4,3-d]pyrimidin-4(3H)-one]
12 | < 500 | > 1000 | CCCC(c1nc2ccncc2c(=O)n1CC)N1CCCNCC1 (stereo not drawn) [Example 172, 2-(1-(1,4-diazepan-1-yl)butyl)-3-ethylpyrido[4,3-d]pyrimidin-4(3H)-one]
13 | < 500 | > 1000 | CCC[C@H](c1nc2ccncc2c(=O)n1CC)N1CCCN(C)CC1 [Example 173, (R)-3-Ethyl-2-(1-(4-methyl-1,4-diazepan-1-yl)butyl)pyrido[4,3-d]pyrimidin-4(3H)-one]
14 | > 5000 | > 1000 | CCC[C@@H](c1nc2ccncc2c(=O)n1CC)N1CCCN(C)CC1 [Example 174, (S)-3-ethyl-2-(1-(4-methyl-1,4-diazepan-1-yl)butyl)pyrido[4,3-d]pyrimidin-4(3H)-one]
15 | < 500 | > 1000 | CCCC(c1nc2ncc(Br)cc2c(=O)n1CC)N1CCCN(C)CC1 (stereo not drawn) [Example 175, 6-Bromo-3-ethyl-2-(1-(4-methyl-1,4-diazepan-1-yl)butyl)pyrido[2,3-d]pyrimidin-4(3H)-one]
16 | > 5000 | > 1000 | CCC[C@H](c1nc2ncc(Br)cc2c(=O)n1CC)N1CCCN(CC)CC1 [Example 176, 6-bromo-3-ethyl-2-(1-(4-ethyl-1,4-diazepan-1-yl)butyl)pyrido[2,3-d]pyrimidin-4(3H)-one]
17 | < 500 | > 1000 | CCCC(c1nc2ncc(Br)cc2c(=O)n1CC)N1CCCNCC1 (stereo not drawn) [Example 177, 2-(1-(1,4-diazepan-1-yl)butyl)-6-bromo-3-ethylpyrido[2,3-d]pyrimidin-4(3H)-one]
18 | < 500 | > 1000 | CCCC(c1nc2ncccc2c(=O)n1CC)N1CCCN(CC)CC1 (stereo not drawn) [Example 178, 3-ethyl-2-(1-(4-ethyl-1,4-diazepan-1-yl)butyl)pyrido[2,3-d]pyrimidin-4(3H)-one]
19 | 500 to 5000 | > 1000 | CCCC(c1nc2ncccc2c(=O)n1CC)N1CCCNCC1 (stereo not drawn) [Example 179, 2-(1-(1,4-diazepan-1-yl)butyl)-3-ethylpyrido[2,3-d]pyrimidin-4(3H)-one]
20 | < 500 | > 1000 | CCCC(c1nc2ncccc2c(=O)n1CC)N1CCCN(C)CC1 (stereo not drawn) [Example 180, 3-ethyl-2-(1-(4-methyl-1,4-diazepan-1-yl)butyl)pyrido[2,3-d]pyrimidin-4(3H)-one]
21 | < 500 | > 1000 | CCCC(c1nc2ncc(Br)cc2c(=O)n1CCC)N1CCCN(C)CC1 (stereo not drawn) [Example 181, 6-bromo-2-(1-(4-methyl-1,4-diazepan-1-yl)butyl)-3-propylpyrido[2,3-d]pyrimidin-4(3H)-one]
22 | < 500 | > 1000 | CCCC(c1nc2ncc(F)cc2c(=O)n1CC)N1CCCN(C)CC1 (stereo not drawn) [Example 182]
23 | < 500 | > 1000 | CCCC(c1nc2ncc(Br)cc2c(=O)n1CC1CC1)N1CCCN(C)CC1 (stereo not drawn) [Example 183, 6-bromo-3-(cyclopropylmethyl)-2-(1-(4-methyl-1,4-diazepan-1-yl)butyl)pyrido[2,3-d]pyrimidin-4(3H)-one]
24 | < 500 | > 1000 | CCCC(c1nc2ncc(F)cc2c(=O)n1CC1CC1)N1CCCN(C)CC1 (stereo not drawn) [Example 184, 3-(cyclopropylmethyl)-6-fluoro-2-(1-(4-methyl-1,4-diazepan-1-yl)butyl)pyrido[2,3-d]pyrimidin-4(3H)-one]
25 | < 500 | > 1000 | CCCC(c1nc2ncc(F)cc2c(=O)n1CC1CC1)N1CCCN(CC)CC1 (stereo not drawn) [Example 185, 3-(cyclopropylmethyl)-2-(1-(4-ethyl-1,4-diazepan-1-yl)butyl)-6-fluoropyrido[2,3-d]pyrimidin-4(3H)-one]
26 | < 500 | > 1000 | CCC[C@H](c1nc2ncc(Br)cc2c(=O)n1CC)N1CCN(C)C[C@@H](C)C1 [Example 186, 6-bromo-2-((R)-1-((R)-4,6-dimethyl-1,4-diazepan-1-yl)butyl)-3-ethylpyrido[2,3-d]pyrimidin-4(3H)-one]
27 | < 500 | > 1000 | CCC[C@H](c1nc2ncc(Br)cc2c(=O)n1CC)N1CCN(C)C[C@H](C)C1 [Example 187, 6-bromo-2-((R)-1-((S)-4,6-dimethyl-1,4-diazepan-1-yl)butyl)-3-ethylpyrido[2,3-d]pyrimidin-4(3H)-one]
